Data as given in patent US20030171345A1 (priority 2001, published 2003).
Like-named read-outs stand apart in the source and are kept apart here.

Assays:
[1] = test system: hERβ; conditions: cited from earlier work
[2] = test system: hERβ; experiment: Relative binding affinity to hERβ (Kuiper et al.); set-up: species or system human; conditions: quotient of RBA to ERβ and ERα
Description: In this case, it is assumed that ERβ predominates in the rat prostates over ERα, and ERα predominates in rat uteri over ERβ.

[3] = test system: estrogen receptor preparations from rat prostates; experiment: Competitive 3H-estradiol binding, rat prostate cytosol estrogen receptor; conditions: for Rat prost. ER(RBA): 3H-estradiol as ligand, rat prostate cytosol, estradiol = 100
[4] = test system: estrogen receptor preparations from rat uteri; experiment: Competitive 3H-estradiol binding, rat uterus cytosol estrogen receptor; conditions: 3H-estradiol as ligand, estradiol = 100
[5] = relative binding affinity, estradiol = 100

| Molecule | hERβ RBA [1, 5] | ERβ/ERα [2] | Rat prost. ER(RBA) [3] | prost. ER/uterus ER ([3]; ratio of the binding to prostate and uterus receptors) | hERβ RBA [1] | Rat uterus ER(RBA) [4] |
| --- | --- | --- | --- | --- | --- | --- |
| C[C@]12CC[C@@H]3c4ccc(O)cc4CC[C@H]3[C@@H]1C[C@@H](O)[C@@H]2O [Estriol] | 21 |  |  |  |  |  |
| C[C@]12CCC(O)CC1=CC[C@@H]1[C@@H]2CC[C@]2(C)C(O)CC[C@@H]12 (stereo partly drawn) [5-Androstene-diol] |  | 3 | 5 | 50 | 17 | 0.1 |
| Estradiol | 100 |  | 100 |  |  | 100 |
